In patent publication US10987359B2, “Oxadiazepinone derivatives and methods of treating hepatitis B infections” (priority 2016, dated 2021):

Test system: HBV
Test: HBV replication inhibition assay (BDNA assay) in HepG2.2.15 cells
Type: cell-based
Conditions: HBV replication assay (BDNA assay), HepG2.2.15 cells; read-out: DNA EC50
Summary of the method: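 HepG2.2.15 cells with stably integrated HBV were treated with serially diluted compounds at 0.5% DMSO for 6 days, with medium and compound refreshed at day 3. Encapsidated HBV DNA from DNase-treated supernatant was quantified by branched DNA assay. EC50 came from % inhibition versus DMSO, fitted non-linearly.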

C[C@@H]1Cc2nn3c(c2CN1C(=O)Nc1cc(Cl)c(F)cc1F)C(=O)N(C)OC(COCC(F)F)C3 (stereo partly drawn) [Compound 127_D1, (45*,9R)—N-(5-chloro-2,4-difluorophenyl)-4-((2,2-difluoroethoxy)methyl)-2,9-dimethyl-1-oxo-1,4,5,8,9,11-hexahydropyrido[4′,3′:3,4]pyrazolo[5,1-d][1,2,5]oxadiazepine-10(2H)-carboxamide] gave an EC50 of 100 to 500 nM.

Same assay, conditions: Hepatitis B virus, HepG2.2.15, HBV replication assay (BDNA assay), HepG2.2.15 cells; read-out: DNA EC50

CN1OC(COCC2CC2)Cn2nc3c(c2C1=O)CN(C(=O)Nc1ccc(F)c(Cl)c1)CC3 (stereo not shown) [Compound 104, N-(3-chloro-4-fluoro-phenyl)-4-(cyclopropylmethoxymethyl)-2-methyl-1-oxo-5,8,9,11-tetrahydro-4H-pyrido[2,3]pyrazolo[2,4-d][1,2,5]oxadiazepine-10-carboxamide] and CN1OC(COCC(F)F)Cn2nc3c(c2C1=O)CN(C(=O)Nc1ccc(F)c(Cl)c1)CC3 (stereo not shown) [Compound 105, N-(3-chloro-4-fluoro-phenyl)-4-(2,2-difluoroethoxymethyl)-2-methyl-1-oxo-5,8,9,11-tetrahydro-4H-pyrido[2,3]pyrazolo[2,4-d][1,2,5]oxadiazepine-10-carboxamide] fall in the same range of EC50: 1 to 100 nM for the first, 1 to 100 nM for the second.

CN1OC(COCC(F)(F)F)Cn2nc3c(c2C1=O)CN(C(=O)Nc1ccc(F)c(Cl)c1)CC3 (stereo not shown) [Compound 106, N-(3-chloro-4-fluoro-phenyl)-2-methyl-1-oxo-4-(2,2,2-trifluoroethoxymethyl)-5,8,9,11-tetrahydro-4H-pyrido[2,3]pyrazolo[2,4-d][1,2,5]oxadiazepine-10-carboxamide] and CN1OC(COC(F)(F)F)Cn2nc3c(c2C1=O)CN(C(=O)Nc1ccc(F)c(Cl)c1)CC3 (stereo not shown) [Compound 128, N-(3-chloro-4-fluorophenyl)-2-methyl-1-oxo-4-((trifluoromethoxy)methyl)-1,4,5,8,9,11-hexahydropyrido[4′,3′:3,4]pyrazolo[5,1-d][1,2,5]oxadiazepine-10(2H)-carboxamide] fall in the same range of EC50: 1 to 100 nM for the first, 1 to 100 nM for the second.

[2H]C([2H])([2H])N1OC(CO)Cn2nc3c(c2C1=O)CN(C(=O)Nc1ccc(F)c(Cl)c1)CC3 (stereo not shown) [Compound 107, N-(3-chloro-4-fluoro-phenyl)-4-(hydroxymethyl)-1-oxo-2-(trideuteriomethyl)-5,8,9,11-tetrahydro-4H-pyrido[2,3]pyrazolo[2,4-d][1,2,5]oxadiazepine-10-carboxamide] and CN1OC(CN)Cn2nc3c(c2C1=O)CN(C(=O)Nc1ccc(F)c(Cl)c1)CC3 (stereo not shown) [Compound 113, 4-(aminomethyl)-N-(3-chloro-4-fluoro-phenyl)-2-methyl-1-oxo-5,8,9,11-tetrahydro-4H-pyrido[2,3]pyrazolo[2,4-d][1,2,5]oxadiazepine-10-carboxamide] fall in the same range of EC50: 1 to 100 nM for the first, 1 to 100 nM for the second.

First: CNC(=O)C1Cn2nc3c(c2C(=O)N(C)O1)CN(C(=O)Nc1ccc(F)c(Cl)c1F)CC3 (stereo not shown) [Compound 118, N10-(3-chloro-2,4-difluorophenyl)-N4,2-dimethyl-1-oxo-1,4,5,8,9,11-hexahydropyrido[4′,3′:3,4]pyrazolo[5,1-d][1,2,5]oxadiazepine-4,10(2H)-dicarboxamide]
Second: CNC(=O)C1Cn2nc3c(c2C(=O)N(C)O1)CN(C(=O)Nc1cc(Cl)c(F)cc1F)CC3 (stereo not shown) [Compound 119, N10-(5-chloro-2,4-difluorophenyl)-N4,2-dimethyl-1-oxo-1,4,5,8,9,11-hexahydropyrido[4′,3′:3,4]pyrazolo[5,1-d][1,2,5]oxadiazepine-4,10(2H)-dicarboxamide]
The EC50 of the first is lower: 1 to 100 nM for the first, 100 to 500 nM for the second.

CNC(=O)C1Cn2nc3c(c2C(=O)N(C)O1)CN(C(=O)Nc1ccc(F)c(C#N)c1)CC3 (stereo not shown) [Compound 120, N10-(3-cyano-4-fluorophenyl)-N4,2-dimethyl-1-oxo-1,4,5,8,9,11-hexahydropyrido[4′,3′:3,4]pyrazolo[5,1-d][1,2,5]oxadiazepine-4,10(2H)-dicarboxamide] gave an EC50 of 100 to 500 nM.
